According to PMC11204923, “Marine Cytotoxin Santacruzamate A Derivatives as Potent HDAC1-3 Inhibitors and Their Synergistic Anti-Leukemia Effects with Venetoclax” (Marine Drugs, 2024):
Where “and” joins values, the source holds several entries; their conditions need not be identical. Equal values may be shown once.

Columns and labels:
HDAC1 = target: T1, HDAC1 (Homo sapiens, UniProt Q13547); assay: In vitro HDAC inhibition fluorescence assay, HDAC1; assay type: biochemical
T1 construct: purchased BPS Bioscience
T1 sequence (Q13547 whole entry): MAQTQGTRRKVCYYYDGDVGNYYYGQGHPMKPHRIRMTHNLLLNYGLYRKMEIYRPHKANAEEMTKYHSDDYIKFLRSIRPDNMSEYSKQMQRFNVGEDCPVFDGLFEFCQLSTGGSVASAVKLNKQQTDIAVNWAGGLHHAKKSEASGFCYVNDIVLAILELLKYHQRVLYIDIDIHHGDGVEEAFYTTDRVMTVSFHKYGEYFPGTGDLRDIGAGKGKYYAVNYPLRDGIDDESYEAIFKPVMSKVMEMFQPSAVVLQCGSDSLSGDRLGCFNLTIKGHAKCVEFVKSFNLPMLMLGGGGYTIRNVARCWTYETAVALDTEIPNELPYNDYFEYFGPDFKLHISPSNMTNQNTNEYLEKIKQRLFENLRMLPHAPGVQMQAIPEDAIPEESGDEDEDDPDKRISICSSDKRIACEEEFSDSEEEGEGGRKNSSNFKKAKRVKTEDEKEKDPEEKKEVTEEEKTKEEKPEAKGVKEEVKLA
Method: (§1) All of the HDAC enzymes were purchased from BPS Bioscience. In vitro HDAC inhibition assays were conducted as previously described. In brief, 20 μL of recombinant HDAC enzyme solution (HDAC1-9, 11) was mixed with various concentrations of the tested compound (20 μL). […] After incubation at 37 °C for 2 h, the catalysis was stopped by the addition of 10 μL of developer containing 30 mg/mL trypsin and 6 μM trichostatin A (TSA). Then, 30 min later, the fluorescence intensity was measured using a microplate reader at excitation and emission wavelengths of 360 and 460 nm, respectively. The inhibition ratios were calculated from the fluorescence intensity readings of tested wells relative to those of control wells, and the IC50 curves and values were determined by GraphPad Prism 6.0, using the “log(inhibitor) vs. normalized response-variable slope” function.

HDAC2 = target: T2, HDAC2 (Homo sapiens, UniProt Q92769); assay: In vitro HDAC inhibition fluorescence assay, HDAC2; assay type: biochemical
T2 construct: purchased BPS Bioscience
T2 sequence (Q92769 whole entry): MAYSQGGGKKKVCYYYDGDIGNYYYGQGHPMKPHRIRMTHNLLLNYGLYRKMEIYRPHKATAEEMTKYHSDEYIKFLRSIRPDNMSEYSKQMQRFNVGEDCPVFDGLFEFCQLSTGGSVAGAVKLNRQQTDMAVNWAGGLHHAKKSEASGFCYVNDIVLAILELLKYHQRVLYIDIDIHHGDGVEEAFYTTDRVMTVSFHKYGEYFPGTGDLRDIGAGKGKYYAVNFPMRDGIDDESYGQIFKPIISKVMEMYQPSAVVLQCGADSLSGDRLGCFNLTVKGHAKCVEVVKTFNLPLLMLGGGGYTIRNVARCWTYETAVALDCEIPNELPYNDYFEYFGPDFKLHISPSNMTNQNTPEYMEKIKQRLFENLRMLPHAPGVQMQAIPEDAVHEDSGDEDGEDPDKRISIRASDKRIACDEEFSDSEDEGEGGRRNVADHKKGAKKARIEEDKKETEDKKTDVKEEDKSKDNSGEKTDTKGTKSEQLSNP
Method: as §1

HDAC4 = target: T3, HDAC4 (Homo sapiens, UniProt P56524); assay: In vitro HDAC inhibition fluorescence assay, HDAC4; assay type: biochemical
T3 construct: purchased BPS Bioscience
T3 sequence (P56524 whole entry): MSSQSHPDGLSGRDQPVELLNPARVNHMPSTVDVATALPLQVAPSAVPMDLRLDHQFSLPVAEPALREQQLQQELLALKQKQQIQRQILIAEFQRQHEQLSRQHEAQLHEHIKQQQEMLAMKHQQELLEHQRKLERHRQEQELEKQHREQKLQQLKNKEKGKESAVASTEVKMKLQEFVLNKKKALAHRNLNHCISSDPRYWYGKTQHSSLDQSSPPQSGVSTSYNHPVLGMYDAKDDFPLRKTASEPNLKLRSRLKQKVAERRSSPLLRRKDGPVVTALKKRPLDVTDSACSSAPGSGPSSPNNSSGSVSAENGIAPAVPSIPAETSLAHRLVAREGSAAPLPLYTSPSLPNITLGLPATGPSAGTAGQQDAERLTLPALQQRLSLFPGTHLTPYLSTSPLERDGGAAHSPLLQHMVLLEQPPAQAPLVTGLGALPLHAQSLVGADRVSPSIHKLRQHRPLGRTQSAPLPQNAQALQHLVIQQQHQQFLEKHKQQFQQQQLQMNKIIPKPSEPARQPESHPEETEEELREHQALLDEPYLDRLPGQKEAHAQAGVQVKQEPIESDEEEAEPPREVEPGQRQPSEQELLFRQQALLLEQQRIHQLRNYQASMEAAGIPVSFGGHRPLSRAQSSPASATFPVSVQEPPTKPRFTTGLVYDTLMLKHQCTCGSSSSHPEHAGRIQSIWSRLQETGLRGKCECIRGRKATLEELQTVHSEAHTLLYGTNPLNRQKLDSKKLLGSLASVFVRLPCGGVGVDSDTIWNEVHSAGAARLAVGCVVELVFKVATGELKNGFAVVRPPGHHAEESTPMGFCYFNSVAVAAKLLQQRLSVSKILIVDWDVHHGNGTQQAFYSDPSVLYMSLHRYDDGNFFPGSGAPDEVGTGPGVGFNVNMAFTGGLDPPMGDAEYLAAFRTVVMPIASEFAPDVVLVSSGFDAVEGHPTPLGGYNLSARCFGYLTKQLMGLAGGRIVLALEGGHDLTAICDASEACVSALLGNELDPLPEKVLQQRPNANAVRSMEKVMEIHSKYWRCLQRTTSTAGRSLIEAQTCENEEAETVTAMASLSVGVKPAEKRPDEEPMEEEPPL
Method: (§2) All of the HDAC enzymes were purchased from BPS Bioscience. In vitro HDAC inhibition assays were conducted as previously described. In brief, 20 μL of recombinant HDAC enzyme solution (HDAC1-9, 11) was mixed with various concentrations of the tested compound (20 μL). The mixture was incubated at 37 °C for 1 h, and then, 10 μL of fluorogenic substrate (Boc-Lys (acetyl)-AMC for HDAC1, 2, 3 and 6; Boc-Lys (trifluoroacetyl)AMC for HDAC4, 5, 7, 8, 9 and 11) was added to achieve a final concentration of 50 μM. After incubation at 37 °C for 2 h, the catalysis was stopped by the addition of 10 μL of developer containing 30 mg/mL trypsin and 6 μM trichostatin A (TSA). Then, 30 min later, the fluorescence intensity was measured using a microplate reader at excitation and emission wavelengths of 360 and 460 nm, respectively. The inhibition ratios were calculated from the fluorescence intensity readings of tested wells relative to those of control wells, and the IC50 curves and values were determined by GraphPad Prism 6.0, using the “log(inhibitor) vs. normalized response-variable slope” function.

HDAC5 = target: T4, HDAC5 (Homo sapiens, UniProt Q9UQL6); assay: In vitro HDAC inhibition fluorescence assay, HDAC5; assay type: biochemical
T4 construct: purchased BPS Bioscience
T4 sequence (Q9UQL6 whole entry): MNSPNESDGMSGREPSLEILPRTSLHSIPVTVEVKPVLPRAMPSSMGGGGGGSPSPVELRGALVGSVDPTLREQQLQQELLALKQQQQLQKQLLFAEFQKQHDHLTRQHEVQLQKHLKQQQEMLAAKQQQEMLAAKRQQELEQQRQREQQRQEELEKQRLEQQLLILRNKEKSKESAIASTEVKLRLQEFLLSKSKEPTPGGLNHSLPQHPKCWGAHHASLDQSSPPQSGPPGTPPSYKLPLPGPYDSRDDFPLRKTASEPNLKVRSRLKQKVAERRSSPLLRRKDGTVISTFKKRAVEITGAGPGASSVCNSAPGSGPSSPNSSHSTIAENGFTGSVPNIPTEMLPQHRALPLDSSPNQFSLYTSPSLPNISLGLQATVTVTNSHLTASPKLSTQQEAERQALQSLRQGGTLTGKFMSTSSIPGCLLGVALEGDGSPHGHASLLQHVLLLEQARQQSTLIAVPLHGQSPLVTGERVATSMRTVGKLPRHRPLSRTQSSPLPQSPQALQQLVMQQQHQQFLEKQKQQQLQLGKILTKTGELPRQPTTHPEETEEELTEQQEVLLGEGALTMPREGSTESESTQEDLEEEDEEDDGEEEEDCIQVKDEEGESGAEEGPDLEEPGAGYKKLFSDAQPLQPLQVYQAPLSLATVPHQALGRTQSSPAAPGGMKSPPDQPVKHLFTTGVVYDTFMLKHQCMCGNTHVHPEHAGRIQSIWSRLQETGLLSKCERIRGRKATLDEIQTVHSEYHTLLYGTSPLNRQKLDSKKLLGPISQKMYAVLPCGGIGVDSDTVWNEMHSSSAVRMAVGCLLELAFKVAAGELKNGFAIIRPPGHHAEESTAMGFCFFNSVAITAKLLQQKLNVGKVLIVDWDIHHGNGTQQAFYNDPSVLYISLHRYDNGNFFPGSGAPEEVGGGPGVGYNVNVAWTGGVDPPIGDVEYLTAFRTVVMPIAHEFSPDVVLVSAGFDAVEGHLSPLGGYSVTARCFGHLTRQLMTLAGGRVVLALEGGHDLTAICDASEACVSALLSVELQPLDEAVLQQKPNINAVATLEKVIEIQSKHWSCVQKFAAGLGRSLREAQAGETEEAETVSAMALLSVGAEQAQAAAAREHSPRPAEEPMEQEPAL
Method: as §2

HDAC7 = target: T5, HDAC7 (Homo sapiens, UniProt Q8WUI4); assay: In vitro HDAC inhibition fluorescence assay, HDAC7; assay type: biochemical
T5 construct: purchased BPS Bioscience
T5 sequence (Q8WUI4 1-952): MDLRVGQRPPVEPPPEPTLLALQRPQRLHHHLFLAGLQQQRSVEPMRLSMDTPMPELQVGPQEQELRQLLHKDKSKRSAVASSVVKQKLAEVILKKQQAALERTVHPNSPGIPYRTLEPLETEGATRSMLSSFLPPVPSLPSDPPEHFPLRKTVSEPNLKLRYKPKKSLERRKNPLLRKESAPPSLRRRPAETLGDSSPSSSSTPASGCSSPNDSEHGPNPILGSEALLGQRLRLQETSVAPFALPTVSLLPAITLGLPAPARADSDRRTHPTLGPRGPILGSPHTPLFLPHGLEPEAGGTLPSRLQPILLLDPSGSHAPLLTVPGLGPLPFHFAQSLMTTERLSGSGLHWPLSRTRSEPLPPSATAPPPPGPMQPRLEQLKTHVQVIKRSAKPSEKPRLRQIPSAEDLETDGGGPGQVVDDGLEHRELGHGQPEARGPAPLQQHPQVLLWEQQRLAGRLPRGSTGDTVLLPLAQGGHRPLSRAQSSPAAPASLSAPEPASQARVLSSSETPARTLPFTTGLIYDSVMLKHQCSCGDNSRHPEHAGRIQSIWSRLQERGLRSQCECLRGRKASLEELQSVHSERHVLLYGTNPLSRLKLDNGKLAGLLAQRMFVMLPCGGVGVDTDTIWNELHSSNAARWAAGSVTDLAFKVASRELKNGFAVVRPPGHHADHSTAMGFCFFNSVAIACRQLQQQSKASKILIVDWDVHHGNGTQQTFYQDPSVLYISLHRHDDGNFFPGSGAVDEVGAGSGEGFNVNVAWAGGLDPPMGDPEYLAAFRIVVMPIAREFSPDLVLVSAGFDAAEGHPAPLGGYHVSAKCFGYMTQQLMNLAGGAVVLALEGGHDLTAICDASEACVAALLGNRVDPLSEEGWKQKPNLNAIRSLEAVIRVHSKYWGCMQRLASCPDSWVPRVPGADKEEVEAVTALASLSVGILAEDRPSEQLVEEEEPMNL
Method: as §2

HDAC9 = target: T6, HDAC9 (Homo sapiens, UniProt Q9UKV0); assay: In vitro HDAC inhibition fluorescence assay, HDAC9; assay type: biochemical
T6 construct: purchased BPS Bioscience
T6 sequence (Q9UKV0 whole entry): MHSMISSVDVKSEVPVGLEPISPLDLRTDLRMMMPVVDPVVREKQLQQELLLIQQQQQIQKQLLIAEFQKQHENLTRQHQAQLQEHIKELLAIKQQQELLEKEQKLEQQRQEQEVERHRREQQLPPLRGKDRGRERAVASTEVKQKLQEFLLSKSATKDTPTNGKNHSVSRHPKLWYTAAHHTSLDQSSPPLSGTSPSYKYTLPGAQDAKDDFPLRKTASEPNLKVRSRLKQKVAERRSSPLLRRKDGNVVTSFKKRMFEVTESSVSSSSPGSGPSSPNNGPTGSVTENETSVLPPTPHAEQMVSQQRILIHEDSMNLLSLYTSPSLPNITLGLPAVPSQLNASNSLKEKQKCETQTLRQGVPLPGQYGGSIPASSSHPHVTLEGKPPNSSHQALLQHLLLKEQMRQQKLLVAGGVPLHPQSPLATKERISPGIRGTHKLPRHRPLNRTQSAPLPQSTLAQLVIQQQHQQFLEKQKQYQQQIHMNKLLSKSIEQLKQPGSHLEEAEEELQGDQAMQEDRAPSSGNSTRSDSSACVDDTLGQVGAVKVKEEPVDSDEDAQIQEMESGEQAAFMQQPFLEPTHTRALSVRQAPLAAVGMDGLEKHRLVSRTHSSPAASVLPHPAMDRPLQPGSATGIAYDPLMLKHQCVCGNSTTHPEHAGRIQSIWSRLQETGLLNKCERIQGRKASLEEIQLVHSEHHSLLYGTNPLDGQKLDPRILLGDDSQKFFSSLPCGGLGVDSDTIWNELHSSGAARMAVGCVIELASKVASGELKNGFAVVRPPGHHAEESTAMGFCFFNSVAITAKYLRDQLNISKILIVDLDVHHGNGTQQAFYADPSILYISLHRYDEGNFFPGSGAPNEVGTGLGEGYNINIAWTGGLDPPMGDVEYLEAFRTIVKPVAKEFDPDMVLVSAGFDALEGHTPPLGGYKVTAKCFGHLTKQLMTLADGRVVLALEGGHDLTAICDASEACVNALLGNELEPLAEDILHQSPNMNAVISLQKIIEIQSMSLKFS
Method: as §2

THP-1 cells = assay: Cell viability assay (resazurin), THP-1; assay type: cell-based; conditions: Homo sapiens, THP-1, 72 h; read-out: IC50 anti-proliferative activity THP-1
Method: The AML cell lines MV4-11, THP-1, KASUMI-1 and HL-60 were purchased from Procell Life Science & Technology Co., Ltd. (Wuhan, China). THP-1 and KASUMI-1 were cultured in RPMI-1640 complete medium containing 10% fetal bovine serum and 1% penicillin and streptomycin. MV4-11 was cultured in IMDM complete medium containing 10% fetal bovine serum and 1% penicillin and streptomycin. HL-60 was cultured in IMDM complete medium containing 20% fetal bovine serum and 1% penicillin and streptomycin. All cell lines were cultured in an incubator with humidity set at 95%, temperature at 37 °C and 5% CO2.
MV4-11, THP-1, KASUMI-1 and HL-60 cells were plated in 96-well transparent plates (10,000 to 15,000 cells/100 μL) and after incubation overnight, cells were treated with gradient-diluted inhibitors with several concentrations. After the cells were incubated with inhibitors for 72 h, 1 mg/mL of Resazurin (Sigma-Aldrich, Saint Louis, MO, USA) was added (working concentration was 0.1 mg/mL). After incubation at 37 °C for about 3 h, the fluorescence intensity of […] was measured at 560 nm/590 nm (excitation/emission) with a Spectra Max i3 Microplate Reader, and the cell viability was determined. The IC50 curve was drawn using GraphPad Prism 9.5 software.

[1] = In vitro stability in rat plasma; assay type: in vitro ADME; conditions: 37 °C, within 24 h, degradation beginning after about 8 h
Method: (§3) Equal samples were collected, and 600 μL acetonitrile was added to quench enzyme reactions. The reaction mixture was swirled for 30 s and then centrifuged at 15,000 rpm at 4 °C for 15 min. The supernatant of each sample was analyzed directly by HPLC (1260 Infinity II, Agilent Technologies, Waldbronn, Germany).

[2] = In vitro stability in artificial gastric juice; assay type: in vitro ADME; conditions: 37 °C, within 24 h
Method: as §3

With CCCNNC(=O)C=Cc1ccc(CNCCc2ccccc2)cc1 [Compound 25c, 3-(4-((Phenethylamino)methyl)phenyl)-N′-propylacrylohydrazide] the IC50 (HDAC1) was 28.1 nM and 28 nM, the “Inhibition Rate of HDAC1 (%)” value (HDAC1; 10 nM, 0.01 µM) was 31.1 ± 2.1% and the inhibition at 0.01 µM (HDAC1; 10 nM, read-out: Inhibition Rate of HDAC1 (%)) was 31.1 ± 2.09%. For the same molecule, the inhibition at 0.1 µM (HDAC1; 100 nM, read-out: Inhibition Rate of HDAC1 (%)) was 83.6 ± 0.4%, the IC50 (HDAC2) was 135 ± 13.3 nM and the IC50 (HDAC4) was > 10000 nM. The IC50 (HDAC5) was > 10000 nM, the IC50 (HDAC7) was > 10000 nM and the IC50 (HDAC9) was > 10000 nM. The IC50 (THP-1 cells) was 392 ± 60.5 nM, the “degradation in rat plasma” value [1] was 35.60% and the “stability in artificial gastric juice” value [2] was “relatively stable”.
